Laboratory results from patent publication US20210267918A1, “PHARMACEUTICAL COMBINATION FOR USE IN AGE-RELATED AND/OR DEGENERATIVE DISEASES” (priority 2018, published 2021).
Where a name gives a salt, the structure may show the parent alone. Marks after values point to notes of the source that are not given here.

Key:
[1] = system: wild-type C. elegans N2 strain; experiment: Life span assay, single dosing (WorMotel platform); type: in vivo, Caenorhabditis elegans; settings: for Decrease MLS versus combo Met25 + Gal100 / Increase MLS versus untreated control / Max LS / Median LS / survival compared to the untreated control: single dosing; for MLS ± SEM (mean life span): single dosing at first day of adulthood, pooled assays; for Max LS: day on which 10% of the animals are still alive; for Median LS: day on which 50% of the animals are still alive; for survival compared to the untreated control: log-rank test
Experimental: (§1) The wild-type C. elegans N2 strain was obtained from the Caenorhabditis Genetic Center (University of Minnesota, USA) and was cultivated at 20° C. on standard nematode growth medium (NGM) seeded with a thin layer of Escherichia coli OP50, unless stated otherwise. Life span of C. elegans was measured analogous to methods described earlier^1,2. The first day of adulthood was always recorded as day 0. FUdR (5-fluoro-2′-deoxyuridine, Sigma-Aldrich) was used in all life span assays to avoid progeny production. Multiple independent assays were carried out. A minimum of 100 animals per condition per assay was used, as to ensure sufficient statistical power.
(§2) During the ‘single dosing assay’, we used the WorMotel platform for long-term recurrent imaging of C. elegans^3. This semi-automated platform allows for unbiased longitudinal monitoring of C. elegans aging phenotypes, including daily measurements of survival as well as locomotion quantification. From the onset of adulthood, animals were confined to individual wells in screening plates (i.e. microfabricated WorMotel chips prepared as described in^3) that were seeded with E. coli HT115(DE3) as a food source and supplemented with the corresponding compounds at different doses (Table 1). Four replicate screening plates were assayed, with all four tested conditions present on each screening plate (in randomized locations). Animals were kept on the same screening plates for the duration of the experiment (i.e. 30 days). The time of death is determined as the final time of nonzero movement. Note that this imaging platform is incompatible with repeated dosing. We used the statistical software R to construct Kaplan-Meier survival curves, calculate mean and median life span and carry out all related statistical analyses. To compare survival between two conditions, log-rank tests were used (i.e. survdiff function of the survival package, adjusted for multiple comparisons via the Benjamini-Hochberg method). The corresponding p-values are referred to as plog-rank.

[2] = system: wild-type C. elegans N2 strain; experiment: Life span assay, repeated dosing (manual scoring on NGM agar plates); type: in vivo, Caenorhabditis elegans; settings: for Decrease MLS versus combo Met25 + Gal100 / Increase MLS versus untreated control / Max LS / Median LS: repeated dosing; for MLS ± SEM (mean life span): repeated dosing from first day of adulthood; for Max LS: day on which 10% of the animals are still alive; for Median LS: day on which 50% of the animals are still alive
Experimental: as §1
During the ‘repeated dosing assay’, we followed the standard method in the field (i.e. manual inspection of survival of age-synchronized populations on bacteria-coated agar plates^2), which is robust and technically relatively simple. In short, at the onset of adulthood, animals were transferred to standard NGM assay plates (untreated control) or NGM assay plates supplemented with the corresponding compounds at different doses (Table 1). Animals were transferred to fresh standard NGM assay plates or fresh NGM assay plates supplemented with the corresponding compounds at different doses thrice in the first week and weekly thereafter (for a total duration of 33 days). This dosing schedule is in accordance with standardized protocols from the Caenorhabditis Intervention Testing Program (CITP)^4. Met was added to the NGM prior to autoclaving, whereas Gal was pipetted onto the seeded assay plates (at least two hours prior to transferring animals on to the assay plates). A same volume of liquid was added to all plates, also to plates of the untreated control and Met condition (i.e. mock treatment). Animals that crawled off the assay plates or died of internal hatching were censored. The number of live and dead worms was scored every one to two days.

C. elegans [3] = experiment: WorMotel-based locomotion tracking (single dosing); type: in vivo, Caenorhabditis elegans; settings: for increase in maximal baseline activity compared to the untreated control: baseline = prior to blue light stimulus; for increase in total number of healthy days (locomotion-based health span) versus untreated control: days with activity >15% of mean maximal activity of untreated control
Experimental: as §2
(§3) Locomotion of C. elegans is characterized by sinusoidal movements (i.e. body bends), and progressively diminishes during adult life. As in other animals, maintenance of coordinated movement is considered a prime health span parameter^5.
Each imaging period, the mean and maximum locomotion activity before and after a blue light stimulus are quantified (as described in^3). The resulting activity values are termed ‘baseline locomotion’ and ‘stimulated locomotion’, respectively. […] An increase in ‘healthy days’ is indicative for an increase in locomotion-based healthspan. Results were analyzed using one-way and two-way ANOVAs, with the Holm-Sidak correction for multiple comparisons in GraphPad Prism software. All corresponding p-values are referred to as pANOVA.

C. elegans [4] = experiment: Camera-based locomotion tracking (repeated dosing); type: in vivo, Caenorhabditis elegans; settings: Table 2, day 7 post-reproductive adults; for Cell occupancy ± SEM: squares of 1 mm^2
Source text: as §3
To quantify locomotion effects in more detail, we utilized an automated tracking system for C. elegans that is compatible with standard petri plates. The multi-camera tracking system allows for objective quantification of mean locomotion speed, maximal locomotion speed and multiple behavioral parameters via path-based image analysis. The system was utilized similar to Peymen et al^8. Two distinct assays were performed. In a first assay (Table 2), the locomotion effects of Gal, Met and a combination of both compounds was assayed. This allowed to test for synergetic effects between Gal and Met on multiple locomotion parameters. In a second assay (Table 3), we characterized the locomotion effects of the combination of Met with different acetylcholinesterase inhibitors (i.e. Gal, Don and Riv), as well as the combination of Met with the acetylcholinesterase inhibitor-like compound Mem. As such, we were able to test whether there is a class effect of acetylcholinesterase inhibitors as a whole (in combination with Met). Synchronized wild-type animals were grown in the presence of the corresponding compounds at different doses from the L4 stage (i.e. day 0) and FUdR, until the start of the measurement. Animals were re-dosed thrice (at day 2, 4 and 7) via transfer to fresh compound-treated NGM plates. Prior to imaging, for each replicate 20 well-fed living animals were manually transferred from their culture plate to an unseeded NGM plate, and after 5 min transferred to another unseeded NGM plate used for imaging. Image acquisition took place with StreamPix 6 multicamera software (GigE PRO GP11004M camera with KOWA LM16JC10M lens) for 11 min at 2 fps and a constant exposure, after which worms were tracked using custom particle-tracking MATLAB code. For each mobile animal (i.e. an animal that moved for at least 2 min during the imaging period), both mean and maximal locomotion speeds were extracted, as well as the behavioral metrics ‘cell occupancy’ and ‘fraction running’. The latter represents the fraction of time that an animal was detected to be running (as opposed to pausing or turning). Cell occupancy is a metric quantifying the spatial search efficiency of a worm. Cell occupancy values represent the number of unique cells (squares of 1 mm^2) that the worm visited during the imaging period. Both behavioral parameters decline during aging. Experiments were performed in triplicate (or quadruplicate), with 20 worms per condition per replicate. The results were analyzed using multiple t testing, with the Holm-Sidak correction for multiple comparisons, in GraphPad Prism software. The corresponding p-values are referred to as p.

[5] = system: glutathione S-transferase 4 (gst-4) gene transcription; experiment: In vivo gene activity assay (gst-4p::GFP reporter); set-up: species or system Caenorhabditis elegans; settings: GFP fluorescence; treated from L1 until late L4 stage
Source text: The transparent body of C. elegans allows for straightforward and non-invasive measurements of in vivo gene transcription via transgenic fluorescent reporters^9. We measured transcription of the gst-4p::GFP C. elegans GFP reporter to gain insight into the intracellular signaling networks that are affected by Met and/or Gal. Additionally, we tested whether Met and Gal have a synergistic or potentiating effect on activation of gst-4 gene transcription.
The gst-4 gene encodes for the cytoprotective and drug-metabolizing enzyme glutathione S-transferase 4 (GST-4). Gst-4 is a direct target of SKN-1, an ortholog of the mammalian Nuclear Factor E2-Related Factor (Nrf2) protein family that is a key transcription factor involved in the protection against oxidative and xenobiotic stresses. […] In C. elegans aging research, transcriptional activation of gst-4 is often used as a read-out for SKN-1 activity. […] GFP fluorescence was quantified using an automated method, as described earlier^11. In short: JMET69 animals with genotype ls[gst-4(1491 bp)::gfp;unc-119(+)];ls[unc-54^p::mCherry;unc-119(+)] were grown in the presence and absence of drugs (i.e. Met and/or Gal) on NGM plates seeded with E. coli OP50, from the L1 until the late L4 stage, before transfer to a 96 well plate for fluorescence quantification. […]

[6] = system: C. elegans sarcomere myofilaments; experiment: Quantifying muscle morphology and deterioration (myo-3p::MYO-3::GFP, strain RW1596); type: in vivo, Caenorhabditis elegans; settings: late adulthood (day 14)
Source text: Sarcomeres are fundamental muscle units, responsible for muscle contraction. C. elegans' sarcomeres consist of alternated filaments containing myosin and actin, similar to sarcomeres of vertebrates. While sarcomere myofilaments in the body wall of young animals are organized in parallel symmetric rows, sarcomere myofilaments in older animals become progressively disorganized with a more irregular shape and orientation.
By using a transgenic reporter strain that has a fusion of myosin heavy chain with fluorescent GFP (strain RW1596; myo-3p::MYO-3::GFP), muscle structure of C. elegans can be visualized in vivo. Combined with confocal microscopy and bioinformatic analysis this offers not only qualitative, but also quantitative readouts for the assessment of the organizational level of muscle fibers. An analytical method to quantify muscle deterioration has been optimized at the laboratory of Prof. Bart Braeckman (UGent; unpublished data). We used this technique to verify whether animals treated with Gal and/or Met, display a muscle phenotype resembling that of younger untreated individuals. […]
For each animal, the two morphological metrics ‘aspect ratio’ and ‘smoothness’ were extracted. […] The aspect ratio is calculated as the ratio of the length of the major axis (=length) and the length of the minor axis (=width) for individual myofilaments within a sarcomere. […]

Compound	Decrease MLS versus combo Met25 + Gal100 [1] [% *]	Increase MLS versus untreated control [1]	MLS ± SEM (mean life span) [1] [days]	Max LS [1] [days]	Median LS [1] [days]	survival compared to the untreated control [1]	Decrease MLS versus combo Met25 + Gal100 [2]	Increase MLS versus untreated control [2]	MLS ± SEM (mean life span) [2] [days]	Max LS [2] [days]	Median LS [2] [days]	increase in maximal baseline activity compared to the untreated control (C. elegans [3]) [%]	increase in total number of healthy days (locomotion-based health span) versus untreated control (C. elegans [3])	Fraction running ± SEM (C. elegans [4])	Maximal speed ± SEM (C. elegans [4])	Mean speed ± SEM (C. elegans [4])	Cell occupancy ± SEM (C. elegans [4])	gst-4 transcription level change compared to the untreated control [5]	sarcomere aspect ratio versus untreated control (in words) [6]
COc1ccc2c3c1O[C@H]1C[C@@H](O)C=C[C@@]31CCN(C)C2 [Gal 100, Galantamine hydrobromide]	−3.9	+12.8% ***	19.63 ± 0.44	27	20	significantly increased survival	−12.5% ****	+6.8% *	16.87 ± 0.32	22	17	15	+20%	48 ± 2 ^NS %	270 ± 17 ^NS μm/s	48 ± 4 ^NS μm/s	11 ± 1 ^NS unique areas visited	+9%	no significant increases in aspect ratio
CN(C)C(=N)NC(=N)N.Cl [Met 25, 1,1-Dimethylbiguanide hydrochloride]	−6.7	+9.6% **	19.08 ± 0.58	28	20	significantly increased survival	−8.3%	+11.9% ****	17.68 ± 0.50	23	18	35	+14%	67 ± 2 %	262 ± 8 ^NS μm/s	102 ± 5 μm/s	28 ± 3 unique areas visited	+26%	no significant increases in aspect ratio
